# Test results from US4341784A, “Naphthyridine derivatives” (priority 1979, dated 1982).
# Like-named read-outs stand apart in the source and are kept apart here.
# Assays:
# [1] = tested on: Serratia marcescens IFO 3736; assay: In vitro antibacterial activity (MIC, agar dilution method); format: cell-based
# Protocol: (§1) The minimum inhibitory concentrations (MIC, μg/ml) of the following compounds in vitro were measured by the agar dilution method of [Chemotherapy, Vol. 22, No. 16, page 1126 (1974)].
# [2] = tested on: Streptococcus faecalis P-2473; assay: as above; format: cell-based; settings: Enterococcus faecalis, P2473, read-out: minimum inhibitory concentration (MIC)
# Protocol: as §1
# [3] = tested on: Staphylococcus aureus No. 50774; assay: as above; format: cell-based
# Protocol: as §1
# [4] = tested on: Shigella flexneri 4a P-330; assay: as above; format: cell-based; settings: 4AP330, read-out: minimum inhibitory concentration (MIC)
# Protocol: as §1
# [5] = tested on: Staphylococcus epidermidis No. 8; assay: as above; format: cell-based
# Protocol: as §1
# Escherichia coli P-5101 [6] = assay: as above; format: cell-based
# Protocol: as §1
# [7] = tested on: Streptococcus pyogenes 65A; assay: as above; format: cell-based; settings: read-out: minimum inhibitory concentration (MIC)
# Protocol: as §1
# [8] = tested on: Staphylococcus aureus No. 80; assay: as above; format: cell-based
# Protocol: as §1
# [9] = tested on: Staphylococcus aureus Smith; assay: as above; format: cell-based; settings: read-out: minimum inhibitory concentration (MIC)
# Protocol: as §1
# [10] = tested on: Salmonella enteritidis No. 1891; assay: as above; format: cell-based; settings: Salmonella enterica, read-out: minimum inhibitory concentration (MIC)
# Protocol: as §1
# [11] = tested on: Pseudomonas aeruginosa No. 12; assay: as above; format: cell-based
# Protocol: as §1
# [12] = tested on: Salmonella typhimurium S-9; assay: as above; format: cell-based; settings: Salmonella enterica, read-out: minimum inhibitory concentration (MIC)
# Protocol: as §1
# Shigella flexneri 2a = assay: as above; format: cell-based; settings: read-out: minimum inhibitory concentration (MIC)
# Protocol: as §1
# [13] = tested on: Enterobacter cloacae P-2540; assay: as above; format: cell-based
# Protocol: as §1
# [14] = tested on: Escherichia coli NIHJ JC-2; assay: as above; format: cell-based
# Protocol: as §1
# Proteus mirabilis P-2381 = assay: as above; format: cell-based
# Protocol: as §1
# [15] = tested on: Corynebacterium pyogenes C-21; assay: as above; format: cell-based
# Protocol: as §1
# [16] = tested on: Klebsiella pneumoniae No. 13; assay: as above; format: cell-based
# Protocol: as §1
# Proteus morganii Kono = assay: as above; format: cell-based; settings: Morganella morganii, read-out: minimum inhibitory concentration (MIC)
# Protocol: as §1
# Escherichia coli P-140a = assay: as above; format: cell-based; settings: read-out: minimum inhibitory concentration (MIC)
# Protocol: as §1
# [17] = tested on: Pseudomonas aeruginosa Tsuchiijima; assay: as above; format: cell-based; settings: read-out: minimum inhibitory concentration (MIC)
# Protocol: as §1
# [18] = tested on: Staphylococcus aureus 209P JC-1; assay: as above; format: cell-based; settings: read-out: minimum inhibitory concentration (MIC)
# Protocol: as §1
# Escherichia coli P-5101 [19] = assay: In vivo efficacy against systemic infections in mice (intraperitoneal infection); set-up: species or system male mice (ddY); settings: P5101, 168 h, po, twice, about 5 minutes and 6 hours after intraperitoneal infection, observed 7 days
# Protocol: (§2) Each of the solutions was orally administered to mice infected with each of test organisms under the conditions described below, and the medium effective doses (ED50) obtained are shown in Table II. Male mice (ddY) weighing about 20 g (3) Escherichia coli P-5101: Intraperitoneal infection with about 9×10^6 cells per mouse suspended in trypto-soy broth with 4% mucin. Twice, about 5 minutes and 6 hours after infection. |Escherichia coli P-5101 for 7 days | The numerals in the table show ED50 (mg/kg). ED50 values were | calculated in accordance with the BehrensKaerber method (Arch. Exp. Path. | Pharm., 162, 480 (1931)). | po: oral administration.
# [20] = tested on: Pseudomonas aeruginosa No. 12; assay: as above; set-up: species or system male mice (ddY); settings: NO.12, 168 h, po, twice, about 5 minutes and 6 hours after intraperitoneal infection, observed 7 days
# Protocol: as §2, with “(4) Pseudomonas aeruginosa No. 12:” for “(3) Escherichia coli P-5101:”, “5×10^3” for “9×10^6”, “days |Pseudomonas aeruginosa No. 12” for “days”
# [21] = IFO3736, Serratia marcescens IFO 3736, agar dilution, read-out: minimum inhibitory concentration (MIC)
# [22] = Staphylococcus aureus, NO.50774, read-out: minimum inhibitory concentration (MIC)
# [23] = Staphylococcus epidermidis, NO.8, read-out: minimum inhibitory concentration (MIC)
# [24] = Escherichia coli, P5101, read-out: minimum inhibitory concentration (MIC)
# [25] = Streptococcus pyogenes 65A, agar dilution
# [26] = Staphylococcus aureus, NO.80, read-out: minimum inhibitory concentration (MIC)
# [27] = Salmonella enteritidis No. 1891, agar dilution
# [28] = Pseudomonas aeruginosa No. 12, agar dilution, read-out: minimum inhibitory concentration (MIC)
# [29] = Salmonella typhimurium S-9, agar dilution
# [30] = P2540, Enterobacter cloacae P-2540, agar dilution, read-out: minimum inhibitory concentration (MIC)
# [31] = NIHJJC2, Escherichia coli NIHJ JC-2, agar dilution, read-out: minimum inhibitory concentration (MIC)
# [32] = P2381, Proteus mirabilis P-2381, agar dilution, read-out: minimum inhibitory concentration (MIC)
# [33] = C21, Corynebacterium pyogenes C-21, agar dilution, read-out: minimum inhibitory concentration (MIC)
# [34] = Klebsiella pneumoniae No. 13, agar dilution, read-out: minimum inhibitory concentration (MIC)
# [35] = Proteus morganii Kono, agar dilution
# [36] = Pseudomonas aeruginosa Tsuchiijima, agar dilution
# [37] = Staphylococcus epidermidis No. 8, agar dilution, read-out: minimum inhibitory concentration (MIC)
# [38] = P5101, Escherichia coli P-5101, agar dilution, read-out: minimum inhibitory concentration (MIC)
# [39] = Staphylococcus aureus No. 80, agar dilution, read-out: minimum inhibitory concentration (MIC)
# [40] = Pseudomonas aeruginosa, NO.12, read-out: minimum inhibitory concentration (MIC)
# [41] = Corynebacterium pyogenes, C21, read-out: minimum inhibitory concentration (MIC)
# [42] = P140A, Escherichia coli P-140a, agar dilution
# [43] = Serratia marcescens, IFO3736, read-out: minimum inhibitory concentration (MIC)
# [44] = Enterobacter cloacae, P2540, read-out: minimum inhibitory concentration (MIC)
# [45] = Escherichia coli, NIHJJC2, read-out: minimum inhibitory concentration (MIC)
# [46] = Klebsiella pneumoniae, NO.13, read-out: minimum inhibitory concentration (MIC)
# [47] = Staphylococcus aureus No. 50774, agar dilution, read-out: minimum inhibitory concentration (MIC)
# [48] = Staphylococcus aureus Smith, agar dilution
# [49] = Staphylococcus aureus 209P JC-1, agar dilution
Compound,"MIC [1, 21] [µg/mL]",MIC [2] [µg/mL],"MIC [3, 22] [µg/mL]",MIC [4] [µg/mL],"MIC [5, 23] [µg/mL]","MIC [8, 26] [µg/mL]",MIC ([9]; Staphylococcus aureus) [µg/mL],"MIC [10, 27] [µg/mL]","MIC [12, 29] [µg/mL]",MIC (Shigella flexneri 2a) [µg/mL],"MIC [13, 30] [µg/mL]","MIC [14, 31] [µg/mL]",MIC (Proteus mirabilis P-2381; [32]) [µg/mL],"MIC [15, 33] [µg/mL]","MIC [16, 34] [µg/mL]",MIC (Proteus morganii Kono; [35]) [µg/mL],"MIC ([18]; Staphylococcus aureus, 209P) [µg/mL]",MIC (Escherichia coli P-5101 [6]; [38]) [µg/mL],"MIC ([7]; Streptococcus pyogenes, 65A) [µg/mL]",MIC (Escherichia coli P-140a; [42]) [µg/mL],further results
"CCn1cc(C(=O)O)c(=O)c2cnc(N3CCCC3)nc21 [Compound E, 8-Ethyl-5,8-dihydro-5-oxo-2-(1-pyrrolidinyl)pyrido[2,3-d]pyrimidine-6-carboxylic acid]",50,> 200,12.5,12.5,12.5,12.5,12.5,25,25,12.5,25,25,50,25,25,25,12.5,,,,"MIC (Escherichia coli P-5101 [6]; [24]): 12.5 µg/mL; MIC [7, 25]: 200 µg/mL; MIC [11, 28]: 100 µg/mL; MIC (Escherichia coli P-140a; Escherichia coli): 12.5 µg/mL; MIC [17, 36]: 100 µg/mL"
"CCn1cc(C(=O)O)c(=O)c2ccc(N3CCCC3)nc21 [Compound A, 1-Ethyl-1,4-dihydro-4-oxo-7-(1-pyrrolidinyl)-1,8-naphthyridine-3-carboxylicacid]",> 200,> 200,6.25,6.25,,,6.25,,50,> 200,> 200,25,> 200,,> 200,> 200,12.5,50,> 200,3.13,"MIC [5, 37]: 3.13 µg/mL; MIC [8, 39]: 3.13 µg/mL; MIC ([10]; ENTERITIDIS): 6.25 µg/mL; MIC [11, 40]: > 200 µg/mL; MIC [15, 41]: > 200 µg/mL; MIC ([17]; Pseudomonas aeruginosa): > 200 µg/mL"
"CCn1cc(C(=O)O)c(=O)c2ccc(C)nc21 [Compound D, 1-Ethyl-1,4-dihydro-7-methyl-4-oxo-1,8-naphthyridine-3-carboxylic acid]",,> 200,50,3.13,25,25,25,,,6.25,,,,,,,100,,> 200,1.56,"MIC [1, 43]: 6.25 µg/mL; MIC (Escherichia coli P-5101 [6]; [24]): 3.13 µg/mL; MIC ([10]; ENTERITIDIS): 3.13 µg/mL; MIC [11, 40]: 200 µg/mL; MIC ([12]; TYPHIMURIUM): 3.13 µg/mL; MIC [13, 44]: 6.25 µg/mL; MIC [14, 45]: 12.5 µg/mL; MIC (Proteus mirabilis P-2381; Proteus mirabilis, P2381, read-out: minimum inhibitory concentration (MIC)): 6.25 µg/mL; MIC [15, 41]: > 200 µg/mL; MIC [16, 46]: 12.5 µg/mL; MIC (Proteus morganii Kono): 6.25 µg/mL; MIC ([17]; Pseudomonas aeruginosa): 200 µg/mL"
"CCn1cc(C(=O)O)c(=O)c2cc(F)c(N3CCCC3)nc21 [Compound C, 1-Ethyl-6-fluoro-1,4-dihydro-4-oxo-7-(1-pyrrolidinyl)-1,8-naphthyridine-3-carboxylic acid]",,6.25,,3.13,0.39,0.2,,0.39,0.78,1.56,,,6.56,0.78,,,,0.78,3.13,0.78,"ED50 (Escherichia coli P-5101 [19]): > 50 mg/kg; MIC [1, 43]: 3.13 µg/mL; MIC [3, 47]: 0.2 µg/mL; MIC [9, 48]: 0.39 µg/mL; MIC [11, 40]: 3.13 µg/mL; MIC [13, 44]: 1.56 µg/mL; MIC [14, 45]: 1.56 µg/mL; MIC [16, 46]: 1.56 µg/mL; MIC (Proteus morganii Kono): 1.56 µg/mL; MIC ([17]; Pseudomonas aeruginosa): 3.13 µg/mL; MIC [18, 49]: 0.39 µg/mL; ED50 [20]: > 100 mg/kg"
"CCn1cc(C(=O)O)c(=O)c2cc(Cl)c(N3CCCC3)nc21 [Compound B, 6-Chloro-1-ethyl-1,4-dihydro-4-oxo-7-(1-pyrrolidinyl)-1,8-naphthyridine-3-carboxylic acid]",> 100,> 200,,> 100,,,,25,50,50,50,50,> 100,50,> 100,> 100,,50,,50,"MIC [3, 47]: 6.25 µg/mL; MIC [5, 37]: 3.13 µg/mL; MIC [7, 25]: 50 µg/mL; MIC [8, 39]: 6.25 µg/mL; MIC [9, 48]: 6.25 µg/mL; MIC [11, 28]: > 100 µg/mL; MIC [17, 36]: > 100 µg/mL; MIC [18, 49]: 12.5 µg/mL"
